# PubChem BioAssay AID330 (DTP/NCI, 2004)
# Values joined by “and” are separate entries in the source; they are usually repeats but may differ in a detail not shown here. Identical values can stand only once. Inconclusive results and toxic doses are left out.
# Test system: P388 leukemia ip, CD2F1 mice, survival T/C
# Assay: NCI In Vivo Anticancer Drug Screen. Data for tumor model P388 Leukemia (intraperitoneal) in CD2F1 (CDF1) mice
# Conditions: endpoint: median survival time, higher = longer survival
# Procedure, shortened: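 Mice carrying the transplanted tumor received test compound or vehicle. Survival was recorded in each group, and the value is the treated-group measurement divided by that of the vehicle-treated control group.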
# [1] = dose: 6.25 mg/kg/injection, schedule: Q01DX009 (ip), vehicle: saline with Tween-80
# [2] = dose: 12.5 mg/kg/injection, schedule: Q01DX009 (ip), vehicle: saline with Tween-80
# [3] = dose: 25.0 mg/kg/injection, schedule: Q01DX009 (ip), vehicle: saline with Tween-80
# [4] = dose: 50.0 mg/kg/injection, schedule: Q01DX009 (ip), vehicle: saline with Tween-80
# [5] = dose: 100.0 mg/kg/injection, schedule: Q01DX009 (ip), vehicle: saline with Tween-80
# [6] = dose: 200.0 mg/kg/injection, schedule: Q01DX009 (ip), vehicle: saline with Tween-80
# [7] = dose: 400.0 mg/kg/injection, schedule: Q01DX009 (ip), vehicle: saline with Tween-80
# [8] = dose: 60.0 mg/kg/injection, schedule: Q01DX005 (ip), vehicle: Klucel (hydroxypropylcellulose) (HPC)
# [9] = dose: 120.0 mg/kg/injection, schedule: Q01DX005 (ip), vehicle: Klucel (hydroxypropylcellulose) (HPC)
# [10] = dose: 240.0 mg/kg/injection, schedule: Q01DX005 (ip), vehicle: Klucel (hydroxypropylcellulose) (HPC)
# [11] = dose: 100.0 mg/kg/injection, schedule: Q04DX003 (ip), vehicle: saline with Tween-80
# [12] = dose: 200.0 mg/kg/injection, schedule: Q04DX003 (ip), vehicle: saline with Tween-80
# [13] = dose: 400.0 mg/kg/injection, schedule: Q04DX003 (ip), vehicle: saline with Tween-80
# [14] = dose: 50.0 mg/kg/injection, schedule: Q01DX009 (ip), vehicle: saline
# [15] = dose: 100.0 mg/kg/injection, schedule: Q01DX009 (ip), vehicle: saline
# [16] = dose: 200.0 mg/kg/injection, schedule: Q01DX009 (ip), vehicle: saline
# [17] = dose: 50.0 mg/kg/injection, schedule: Q01DX005 (ip), vehicle: Klucel (hydroxypropylcellulose) (HPC)
smiles,measurement,setting,value
CC(=O)C(C)C(C)=O,T/C,[1],97 % of control
same,T/C,[2],93 % of control
same,T/C,[3],100 % of control
same,T/C,[4],107 % of control
same,T/C,[5],108 % of control
same,T/C,[6],103 % of control
same,T/C,[7],110 % of control
O=C(N=Nc1ccccc1)Nc1ccc(Br)cc1,T/C,"dose: 50.0 mg/kg/injection, schedule: Q01DX005 (ip), vehicle: saline with Tween-80",101 % of control
same,T/C,"dose: 100.0 mg/kg/injection, schedule: Q01DX005 (ip), vehicle: saline with Tween-80",101 % of control
same,T/C,"dose: 200.0 mg/kg/injection, schedule: Q01DX005 (ip), vehicle: saline with Tween-80",104 % of control
Cc1cc(NS(=O)(=O)c2ccc(NC(=O)NCCCl)cc2)no1,T/C,"dose: 30.0 mg/kg/injection, schedule: Q01DX005 (ip), vehicle: Klucel (hydroxypropylcellulose) (HPC)",99 % of control
same,T/C,[8],98 % of control
same,T/C,[9],100 % of control
same,T/C,[10],100 % of control
CC1=CCC(=O)O1,T/C,"dose: 50.0 mg/kg/injection, schedule: Q01DX009 (ip), vehicle: suspension in saline",100 % of control
same,T/C,"dose: 100.0 mg/kg/injection, schedule: Q01DX009 (ip), vehicle: suspension in saline",99 % of control and 88 % of control
same,T/C,"dose: 200.0 mg/kg/injection, schedule: Q01DX009 (ip), vehicle: suspension in saline",101 % of control and 87 % of control
same,T/C,"dose: 400.0 mg/kg/injection, schedule: Q01DX009 (ip), vehicle: suspension in saline",98 % of control and 101 % of control
Cc1cc2ccccc2c[n+]1C,T/C,"dose: 1.56 mg/kg/injection, schedule: Q01DX009 (ip), vehicle: saline with Tween-80",105 % of control
same,T/C,"dose: 3.12 mg/kg/injection, schedule: Q01DX009 (ip), vehicle: saline with Tween-80",102 % of control
same,T/C,[1],96 % of control
same,T/C,[2],105 % of control
same,T/C,"dose: 12.5 mg/kg/injection, schedule: Q04DX003 (ip), vehicle: saline",100 % of control
same,T/C,"dose: 25.0 mg/kg/injection, schedule: Q04DX003 (ip), vehicle: saline",100 % of control
same,T/C,"dose: 50.0 mg/kg/injection, schedule: Q04DX003 (ip), vehicle: saline",100 % of control
Cn1cc(NC(=O)c2cc(NC(=O)c3cc(NC=O)cn3C)cn2C)cc1C(=O)NCCC(=N)N,T/C,"dose: 15.0 mg/kg/injection, schedule: Q01DX005 (ip), vehicle: water",100 % of control
same,T/C,"dose: 30.0 mg/kg/injection, schedule: Q01DX005 (ip), vehicle: water",101 % of control
same,T/C,"dose: 60.0 mg/kg/injection, schedule: Q01DX005 (ip), vehicle: water",96 % of control
same,T/C,"dose: 120.0 mg/kg/injection, schedule: Q01DX005 (ip), vehicle: water",104 % of control
Nc1c(Cl)c(Cl)cc(Cl)c1Cl,T/C,[11],100 % of control
same,T/C,[12],104 % of control
same,T/C,[13],104 % of control
CS(=O)(=O)OCCCCO,T/C,[5],100 % of control
same,T/C,[11],100 % of control
same,T/C,[6],110 % of control
same,T/C,[12],100 % of control
same,T/C,[7],110 % of control
same,T/C,[13],91 % of control
CC(=O)/C=C(\c1ccccc1)c1c(O)c2ccccc2oc1=O,T/C,[4],89 % of control
same,T/C,[5],99 % of control
same,T/C,[6],114 % of control
CSc1nccc(=O)n1-c1ccccc1F,T/C,"dose: 25.0 mg/kg/injection, schedule: Q04DX002 (ip), vehicle: Klucel (hydroxypropylcellulose) (HPC)",102 % of control
same,T/C,"dose: 50.0 mg/kg/injection, schedule: Q04DX002 (ip), vehicle: Klucel (hydroxypropylcellulose) (HPC)",104 % of control
same,T/C,"dose: 100.0 mg/kg/injection, schedule: Q04DX002 (ip), vehicle: Klucel (hydroxypropylcellulose) (HPC)",102 % of control
CC1CN2CCOC2(C)O1 (stereo unspecified),T/C,"dose: 60.0 mg/kg/injection, schedule: Q01DX005 (ip), vehicle: saline",106 % of control
same,T/C,"dose: 120.0 mg/kg/injection, schedule: Q01DX005 (ip), vehicle: saline",102 % of control
same,T/C,"dose: 240.0 mg/kg/injection, schedule: Q01DX005 (ip), vehicle: saline",101 % of control
NC(=S)c1ccc(/C=N/c2nccs2)cc1,T/C,"dose: 100.0 mg/kg/injection, schedule: Q01DX001 (ip), vehicle: Klucel (hydroxypropylcellulose) (HPC)",105 % of control
same,T/C,"dose: 200.0 mg/kg/injection, schedule: Q01DX001 (ip), vehicle: Klucel (hydroxypropylcellulose) (HPC)",104 % of control
same,T/C,"dose: 400.0 mg/kg/injection, schedule: Q01DX001 (ip), vehicle: Klucel (hydroxypropylcellulose) (HPC)",105 % of control
COC(=O)Cn1/c(=N\N=C\c2ccccc2)sc2ccccc21,T/C,"dose: 100.0 mg/kg/injection, schedule: Q01DX001 (ip), vehicle: saline with Tween-80",90 % of control
same,T/C,"dose: 200.0 mg/kg/injection, schedule: Q01DX001 (ip), vehicle: saline with Tween-80",87 % of control
same,T/C,"dose: 400.0 mg/kg/injection, schedule: Q01DX001 (ip), vehicle: saline with Tween-80",88 % of control
CCN(CC)CCNc1ccc(N)c2sc3ccccc3c(=O)c12,T/C,[4],103 % of control and 107 % of control and 119 % of control
same,T/C,[5],115 % of control and 120 % of control and 122 % of control
same,T/C,[6],96 % of control
CNC(=O)OCc1c(COC(=O)NC)c(-c2ccc(S(=O)(=O)c3ccccc3)cc2)n(C)c1C,T/C,"dose: 12.5 mg/kg/injection, schedule: Q01DX009 (ip), vehicle: distilled water + Tween-80",154 % of control
same,T/C,"dose: 40.0 mg/kg/injection, schedule: Q01DX009 (ip), vehicle: distilled water + Tween-80",153 % of control
same,T/C,"dose: 50.0 mg/kg/injection, schedule: Q01DX009 (ip), vehicle: distilled water + Tween-80",100 % of control
same,T/C,"dose: 80.0 mg/kg/injection, schedule: Q01DX009 (ip), vehicle: distilled water + Tween-80",153 % of control
O=S(=O)(O)O.[Cu+2].[NH-]CCC[N-]CCCC[N-]CCC[NH-],T/C,"dose: 6.25 mg/kg/injection, schedule: Q01DX001 (ip), vehicle: saline",108 % of control
same,T/C,"dose: 12.5 mg/kg/injection, schedule: Q01DX001 (ip), vehicle: saline",113 % of control and 92 % of control
same,T/C,"dose: 25.0 mg/kg/injection, schedule: Q01DX001 (ip), vehicle: saline",113 % of control
same,T/C,"dose: 50.0 mg/kg/injection, schedule: Q01DX001 (ip), vehicle: saline",106 % of control
O=c1[nH]c(-c2ccccc2)nc2nc3ccc([N+](=O)[O-])cc3[n+]([O-])c12,T/C,[14],93 % of control
same,T/C,[15],92 % of control
same,T/C,[16],97 % of control
COc1cc([C@@H]2c3cc4c(c(OC)c3C[C@H]3COC(=O)[C@@H]32)OCO4)cc(OC)c1OC,T/C,"dose: 12.5 mg/kg/injection, schedule: Q01DX005 (ip), vehicle: Klucel (hydroxypropylcellulose) (HPC)",100 % of control
same,T/C,"dose: 25.0 mg/kg/injection, schedule: Q01DX005 (ip), vehicle: Klucel (hydroxypropylcellulose) (HPC)",103 % of control
same,T/C,[17],103 % of control and 111 % of control
CCCCOc1ccc(Nc2c3ccccc3nc3ccccc23)cc1,T/C,[2],98 % of control and 91 % of control
same,T/C,[3],98 % of control and 106 % of control
same,T/C,[4],121 % of control
CCOC(=O)NCCF,T/C,"dose: 0.78 mg/kg/injection, schedule: Q01DX009 (ip), vehicle: saline",96 % of control
same,T/C,"dose: 1.56 mg/kg/injection, schedule: Q01DX009 (ip), vehicle: saline",101 % of control
same,T/C,"dose: 3.12 mg/kg/injection, schedule: Q01DX009 (ip), vehicle: saline",101 % of control
COc1c(Cl)cc2c(c1OC)N(C)C1N3C(=O)C4(C)SSC3(C(=O)N4C)C(O)C21O (stereo unspecified),T/C,"dose: 0.03 mg/kg/injection, schedule: Q01DX009 (ip), vehicle: Klucel (hydroxypropylcellulose) (HPC)",100 % of control and 118 % of control
same,T/C,"dose: 0.06 mg/kg/injection, schedule: Q01DX009 (ip), vehicle: Klucel (hydroxypropylcellulose) (HPC)",89 % of control
same,T/C,"dose: 0.13 mg/kg/injection, schedule: Q01DX009 (ip), vehicle: Klucel (hydroxypropylcellulose) (HPC)",96 % of control
same,T/C,"dose: 0.5 mg/kg/injection, schedule: Q01DX009 (ip), vehicle: Klucel (hydroxypropylcellulose) (HPC)",94 % of control
CSc1cccnc1SC,T/C,[14],98 % of control
same,T/C,[15],98 % of control
same,T/C,[16],92 % of control
COCN(C)N=Nc1ccc(C#N)cc1,T/C,[8],100 % of control
same,T/C,[9],117 % of control
same,T/C,[10],117 % of control
CCOCN(COCC)c1ccccn1,T/C,[3],100 % of control
same,T/C,[4],105 % of control and 116 % of control
O=C1C=C2CCCCCCCCCC(C1)C2 (stereo unspecified),T/C,[17],99 % of control
same,T/C,"dose: 100.0 mg/kg/injection, schedule: Q01DX005 (ip), vehicle: Klucel (hydroxypropylcellulose) (HPC)",99 % of control
same,T/C,"dose: 200.0 mg/kg/injection, schedule: Q01DX005 (ip), vehicle: Klucel (hydroxypropylcellulose) (HPC)",89 % of control
